From PMC12096834, “Antimicrobial peptide plectasin recombinantly produced in Escherichia coli disintegrates cell walls of gram-positive bacteria, as proven by transmission electron and atomic force microscopy” (Journal of Bacteriology, 2025)
In brackets after ≈: the same amount, converted by molar mass.

What was measured:
Experiment in all cases: Antimicrobial activity assay (broth microdilution MIC)
Type in all cases: cell-based
[1] = tested on: Listeria monocytogenes DSM 20600 (ATCC 15313); conditions: MHF broth, approx 5 × 10^4 CFU/well, 35°C, 18 hours, absorbance 625 nm, three independent assays, plectasin 0.5–512 µg/mL, CASPON-plectasin 16–16,384 µg/mL
From the text: (§1) The test panel included four gram-positive and four gram-negative bacterial strains, which were selected based on EUCAST recommendations and are commonly used in quality control for pathogen testing. Specifically, the test panel comprised the following four gram-positive strains: Staphylococcus aureus DSM 2569 (ATCC 29213), Streptococcus pneumoniae DSM 24048 (ATCC 49619), Listeria monocytogenes DSM 20600 (ATCC 15313), and Enterococcus faecalis DSM 2570 (ATCC 29212). The gram-negative strains included the following: Pseudomonas aeruginosa DSM 1117 (ATCC 27853), Escherichia coli DSM 1103 (ATCC 25922), Escherichia coli BL21(DE3) DSM 102052 (ATCC BAA-1025-B2), and Escherichia coli HMS174 DSM 5932 (ATCC 47011). These strains were obtained from the German Collection of Microorganisms and Cell Cultures GmbH (DSMZ, Leibnitz Institute, Braunschweig, Germany). The strains were maintained in cryo-stocks containing 20% glycerol at a temperature of −80°C. When needed, all gram-negative strains were streaked on MH-agar (Oxoid, Hampshire, UK) and all gram-positive strains on TSYE-agar, with the exception of the Listeria monocytogenes strain, for which BHI-agar was used. All strains were incubated overnight at 35°C.
(§2) The plates were made fresh on the day of the assay by first adding 50 µL of sterile water (for the gram-positive strains) or PBS buffer pH 7.4 (for the gram-negative strains) into the wells of the first to 11th column of a polystyrene 96-well plate (Greiner, 655161, Kremsmünster, Austria). An ampicillin stock solution (6,400 µg/mL) was prepared and diluted in sterile water to obtain a final ampicillin solution of 64 µg/mL. Purified plectasin, 100 µL of ampicillin solution, CASPON-plectasin, and sterile water for the negative control were each dispensed into two wells of the 12th microtiter plate column and diluted twofold from the 11th to the second column by transferring 50 µL per well of the previous column into the next one (in the end, 50 µL of the 2nd was discarded) to obtain the ranges of 0.064–64 µg/mL for ampicillin, 32–32,768 µg/mL for CASPON-plectasin, and 0.5–512 µg/mL (Streptococcus pneumoniae and Staphylococcus aureus), 1–1,024 µg/mL (Enterococcus faecalis and Listeria monocytogenes), or 4–4,096 µg/mL (gram-negative strains) for plectasin.
(§3) Bacterial inocula were prepared by suspending colonies from incubated plates described above with 3 mL 0.85% NaCl solution to obtain a turbidity corresponding to McFarland standard 0.5. The inoculated saline suspensions (1–2 × 10^8 CFU/mL) were diluted 1:100 in double concentrated MH- (all gram-negative strains, Staphylococcus aureus, and […]) or MHF- (Streptococcus pneumoniae, Listeria monocytogenes; MH-broth with 5% lysed horse blood and 20 mg/L ß-NAD) broth to obtain approximately […]. Fifty microliters of the diluted inoculum was added to the wells of the prepared microdilution plate, resulting in the final plectasin (0.25–256 µg/mL, 0.5–512 µg/mL, and 2–2,048 µg/mL), CASPON-plectasin (16–16,384 µg/mL), and ampicillin (0.032–32 µg/mL) concentrations and approximately […]. The wells of the negative control were inoculated with sterile double-concentrated MH- or MH-F broth. A schematic illustration of the plate preparation can be found in the supplementary material (Fig. S1). Plates were incubated in ambient air at 35°C for 18 hours. After incubation, the plates were shaken for 1 minute (1,000 rpm) on a platform shaker (Titramax 101, Heidolph, Schwabach, Germany) until obtaining a homogeneous suspension. The absorbances (625 nm) of each well were measured on a Tecan Spark device (Männedorf, Switzerland) and subtracted by the average absorbance of the negative control. […] The variability of the MIC results was evaluated by testing all strains against each agent in three independent assays. […]

[2] = tested on: Pseudomonas aeruginosa DSM 1117 (ATCC 27853); conditions: MH broth, 35°C, 18 hours, absorbance 625 nm, three independent tests, plectasin 2–2,048 µg/mL, CASPON-plectasin 16–16,384 µg/mL
From the text: as §1, §2, §3

[3] = tested on: Streptococcus pneumoniae DSM 24048 (ATCC 49619); conditions: 18 hours
From the text: as §1, §2, §3

[4] = tested on: Enterococcus faecalis DSM 2570 (ATCC 29212); conditions: MH broth, approx 5 × 10^4 CFU/well, 35°C, 18 hours, absorbance 625 nm, three independent assays, plectasin 0.5–512 µg/mL, CASPON-plectasin 16–16,384 µg/mL
From the text: as §1, §2, §3

[5] = tested on: Escherichia coli BL21(DE3) DSM 102052 (ATCC BAA-1025-B2)
From the text: as §1, §2, §3

[6] = tested on: Escherichia coli DSM 1103 (ATCC 25922); conditions: MH broth, 35°C, 18 hours, absorbance 625 nm, three independent tests, plectasin 2–2,048 µg/mL, CASPON-plectasin 16–16,384 µg/mL
From the text: as §1, §2, §3

[7] = tested on: Staphylococcus aureus DSM 2569 (ATCC 29213); conditions: 18 hours
From the text: as §1, §2, §3

[8] = tested on: Escherichia coli HMS174 DSM 5932 (ATCC 47011); conditions: MH broth, 35°C, 18 hours, absorbance 625 nm, three independent tests, plectasin 2–2,048 µg/mL, CASPON-plectasin 16–16,384 µg/mL
From the text: as §1, §2, §3

[9] = microdilution, extinction at 625 nm, Fig. 3

CC[C@H](C)[C@@H]1NC(=O)[C@H](CO)NC(=O)[C@H](CCCCN)NC(=O)[C@@H]2CSSC[C@@H](C(=O)N[C@@H](Cc3ccc(O)cc3)C(=O)O)NC(=O)[C@H](CCCCN)NC(=O)[C@@H]3CSSC[C@H](NC(=O)[C@H](CCC(N)=O)NC(=O)[C@H](CCSC)NC(=O)[C@H](CC(=O)O)NC(=O)[C@H](CC(=O)O)NC(=O)[C@H](CCC(=O)O)NC(=O)[C@H](CC(=O)O)NC(=O)[C@H](Cc4c[nH]c5ccccc45)NC(=O)[C@@H]4CCCN4C(=O)CNC(=O)[C@H](CC(N)=O)NC(=O)[C@@H](NC(=O)CNC(=O)[C@H](Cc4ccccc4)NC(=O)CN)CSSC[C@H](NC(=O)[C@H](Cc4ccc(O)cc4)NC(=O)CNC(=O)CNC(=O)[C@H](CCCCN)NC(=O)[C@H](Cc4ccc(O)cc4)NC(=O)CNC(=O)[C@H](CCCCN)NC1=O)C(=O)N[C@@H](C)C(=O)N[C@@H](CCCCN)C(=O)NCC(=O)NCC(=O)N[C@@H](Cc1ccccc1)C(=O)N[C@@H](C(C)C)C(=O)N3)C(=O)N[C@@H](Cc1c[nH]cn1)C(=O)N[C@@H](CC(N)=O)C(=O)N[C@@H](Cc1c[nH]cn1)C(=O)N2 [Plectasin, plectasin]
MIC [1]: 32 µg/mL (≈ 7.27 µM)
growth inhibition (no MIC could be determined) [2]: no growth decline
MIC ([3]; broth microdilution, MHF broth (5% lysed horse blood, 20 mg/L ß-NAD), approx 5 × 10^4 CFU/well, 35°C, absorbance 625 nm, three independent assays, plectasin 0.25–256 µg/mL, CASPON-plectasin 16–16,384 µg/mL): 4 µg/mL (≈ 0.909 µM)
plectasin concentration at which a distinct gradient of extinction reduction was observed [3, 9]: 0.5 µg/mL
MIC [4]: 128 µg/mL (≈ 29.1 µM)
growth inhibition (no MIC could be determined) ([5]; broth microdilution, MH broth, 35°C, 18 hours, absorbance 625 nm, three independent tests, plectasin 2–2,048 µg/mL, CASPON-plectasin 16–16,384 µg/mL): no growth decline
extinction value at 625 nm (growth) at the highest plectasin concentration ([5]; increased number and altered morphology of cells (Fig. S11)): four times higher
growth inhibition (no MIC could be determined) [6]: no growth decline
MIC ([7]; broth microdilution, MH broth, approx 5 × 10^4 CFU/well, 35°C, absorbance 625 nm, three independent assays, plectasin 0.25–256 µg/mL, CASPON-plectasin 16–16,384 µg/mL): 32 µg/mL (≈ 7.27 µM)
plectasin concentration at which a distinct gradient of extinction reduction was observed [7, 9]: 8 µg/mL
growth inhibition (no MIC could be determined) [8]: no growth decline
